Results reported in US11207369B2, “Compositions and methods for modulating ciliogenesis” (UNIVERSITY OF PITTSBURGH-OF THE COMMONWEALTH SYSTEM OF …, priority 2017, dated 2021).
“Also recorded” adds a separate entry of the source.

Experiments:
[1] = tested on: Hes1, Hes5, Hey1, Notch1, Psen1, Hif1α, nNOS, iNOS, eNOS; assay: qPCR of gene expression in mouse tracheal epithelial cells during ciliogenesis; assay type: cell-based; conditions: 2 nM DAPT vs untreated, varying time points in suspension culture, most prominently day 5
Method: FIGS. 7(A-I) are graphs showing quantitative […] (qPCR) of gene expression in mouse tracheal epithelial cells during ciliogenesis. Cells were grown to confluence in stationary culture, treated with collagenase, then placed into suspension culture having 0 nM or 2 nM DAPT, which marked the “baseline” time point. At the indicated times, qPCR experiments were performed to detect gene expression of Hes1 (FIG. 7A), Hes5 (FIG. 7B), Hey1 (FIG. 7C), Psen1 (FIG. 7D), Hif1α (FIG. 7E), Notch1 (FIG. 7F), nNOS (FIG. 7G), iNOS (FIG. 7H), and eNOS (FIG. 7I).
Indeed, expression of multiple genes such as Hes1, Hes5, Hey1, Notch1, Psen1, Hif1α, nNOS, iNOS, and eNOS was altered at varying time points during ciliogenesis in suspension culture containing 2 nM DAPT, as compared to untreated (no DAPT) controls (FIGS. 7A-[…]). […] This effect was most marked for the three isoforms of nitric oxide synthase (NOS).

airway epithelial cells = assay: Inhalational administration to subjects with COPD, video-microscopy of airway epithelial cells; assay type: in vivo, human; conditions: approx. 1 mg/kg inhaled once per day for seven days
Method: Ten subjects are diagnosed with Chronic Obstructive Pulmonary Disease (COPD). Each subject provides informed consent regarding providing epithelial cell samples and to receiving a blinded treatment of either DAPT or a control placebo. […] The epithelial cells are placed into suitable medium such as Leibovitz-15 medium. Thereafter, cell samples are evaluated for percentage ciliation, cilia length, and/or cilia beat frequency by video-microscopy, and the results are recorded. Video-microscopy confirms each subject has epithelial cells which are reduced in cilia number, cilia length, and/or cilia beat frequency compared to averages or standards present in the medical literature.
DAPT is inhalationally administered to five of the subjects via a nebulizer or an inhaler (hereinafter, “DAPT-treated subjects”). […]
(§1) The epithelial cells are placed into suitable medium such as Leibovitz-15 medium. Thereafter, cell samples are evaluated for percentage ciliation, cilia length, and/or cilia beat frequency by video-microscopy, and the results are recorded. Video-microscopy confirms each of the five DAPT-treated subjects has epithelial cells which are increased in cilia number, cilia length, and/or cilia beat frequency as compared to both 1) the epithelial cells of placebo-treated subjects, and 2) the pre-treatment measurements recorded for epithelial cells of each respective DAPT-treated subject. […]

ependymal cells = assay: Intrathecal administration to subjects with hydrocephalus, video-microscopy of ependymal cells; assay type: in vivo, human; conditions: approx. 1 mg/kg intrathecal once
Method: Ten subjects are diagnosed with hydrocephalus. Each subject provides informed consent regarding providing epithelial cell samples and to receiving a blinded treatment of either DAPT or a control placebo. Intrathecal biopsy is used to obtain ependymal cells from the cerebrospinal fluid of each subject. The ependymal cells are placed into suitable medium such as Leibovitz-15 medium. Thereafter, cell samples are evaluated for percentage ciliation, cilia length, and/or cilia beat frequency by video-microscopy, and the results are recorded. Video-microscopy confirms each subject has ependymal cells which are reduced in cilia number, cilia length, and/or cilia beat frequency compared to averages or standards present in the medical literature. […]
as §1, with “On day eight post-injection, ependymal” for “The epithelial”, “obtained from the cerebrospinal fluid of each subject by intrathecal biopsy. […]” for “placed into suitable medium such as Leibovitz-15 medium.”, “ependymal” for “epithelial”

[2] = tested on: mouse tracheal epithelial cells; assay: Ex vivo reciliation of mouse tracheal epithelial cells in suspension culture (video-microscopy); assay type: cell-based
Description: All animal protocols were approved by the University of Pittsburgh Animal Care and Use Committee. Wild-type, C57B6, adult mice (6-8 weeks of age) were euthanized with inhalational CO2, anterior neck regions were washed with 70% ethanol, and a transverse incision was made across the neck at the mid-cervical level. […] The trachea was gently dissected from the underlying adherent esophagus and connective tissue, pulled out and transected proximally first from the larynx and then distally as far down as possible, close to the carina, and placed in a petri dish containing about 10 ml Leibovitz-15 solution (Gibco; 21083). Isolated tracheas were cleaned of adherent muscle tissue, blood vessels and fat under a dissecting microscope, then incised, splaying the trachea length-wise.
Twelve ml of Leibovitz-15 solution were placed in a 15 ml falcon tube, and 6 cleaned, incised tracheas were added to each tube. Pronase (Protease from Streptomyces griseus, Sigma, P5147) was added to a final concentration of 1.5 mg/ml (Stock solution, 150 mg/ml, 100×) and placed in 4° C. overnight with gentle shaking. After incubation, Pronase was neutralized with addition of fetal bovine serum to a final concentration of 10% (1.2 ml/tube). Tracheas and denuded epithelial cells were centrifuged at 1200 rpms for 6 minutes. Supernatant was aspirated, and trachea/cells were re-suspended in 12 ml Stationary media (500 ml DMEM/F12, 10 ml of Ultroser G, and 10 ml of 100× Antibiotics-Antimycotic). The cells/tracheas were pipetted up and down vigorously 12-20 times, and vortexed to re-suspend pelleted tracheas if necessary. Trachea/cells were centrifuged again, supernatants were aspirated, pellets were re-suspended in 6 ml of stationary medium, and then everything was transferred to a Primaria plate (Corning, 353803) or a regular cell culture plate (Corning, 353003), and incubated at 37° C./5% CO2 for 6 hours. This was performed to plate out fibroblasts, thereby minimizing contamination of tracheal epithelial cells with fibroblasts. After incubation, non-adherent cells were collected by lightly washing the plates with stationary media present in the plates. Cells were pelleted, supernatant aspirated, cells re-suspended in 12 ml of stationary medium and added to a 6-well plate (2 ml/well) coated with rat tail collagen.
Tracheal epithelial cells were obtained from mice and processed for stationary culture as detailed above. The tracheal epithelial cells were placed onto rat-tail collagen coated wells and then incubated at 37° C./5% CO2 for 36-48 hrs. Over the course of about 48 hours, the cells seeded onto the collagen lost their cilia and underwent proliferative growth, expanding in numbers. […]

[3] = tested on: human nasal epithelial cells; assay: Ex vivo reciliation of human nasal epithelial cells in suspension culture (video-microscopy); assay type: cell-based; conditions: 2 nM DAPT vs regular media
Method: Cells were immediately placed into 5 ml Leibovitz-15 medium prior to processing for stationary culture.
These cells were spun down, the supernatant was aspirated, cells were resuspended in 6 ml of stationary medium, and then plated onto 3 wells of a 6-well rat tail collagen coated plate. The media was changed 48-72 hours post plating and fed every 2 days until confluence was reached. Following confluence, the treatment of mouse tracheal epithelial cells and human nasal epithelial cells was identical e.g., placement into suspension culture, video microscopy, etc. siRNA knockdown was only performed in mouse tracheal tissue due to the paucity of human nasal epithelial cells.
Once confluence was reached, typically occurring between about 7 to 10 days, the stationary media was aspirated, and collagen was digested with 1 ml of Collagenase 4 (200 IU/ml, Worthington, LS004210) for 75-90 mins at 37° C./5% CO2. After incubation, collagenase was neutralized using 2 ml of Suspension media (500 ml DMEN/F12, 50 ml NuSerum, 10 ml 100× Antibiotics-Antimycotic). Cells adherent to the bottom of the plate were gently scrapped off with a cell scraper (Fisherbrand, 08-100-241). […]
Reciliation was observed by about days 7 to 9 with high-speed video-microscopy (200 fps) with a 60× oil-immersion lens (FIG. 2A). […] The outlined total surface and ciliated surface alone was quantified. Extent of ciliation was calculated by dividing the length of ciliated surface by the length of the entire surface available for ciliation, and converted to a percentage.
To measure cilia length in reciliated nasal tissue, each recording was processed with a custom script written for Fiji, an open-source image analysis software (Schindelin, et al., Nat. Methods, 2012, 9:676-682). This script used the Temporal Median filter to segment patches of cilia based on movement, and the Thickness tool in the BoneJ analysis toolkit (Doube, et al., Bone, 2010, 47:1076-1079) measured average cilia length. Ciliary beat frequency was measured in cilia beats per second (Hertz).] […]

[4] = day eight, vs placebo and pre-treatment
[5] = 2 nM DAPT vs untreated, 8 days suspension culture
[6] = 12 subjects with congenital heart defects

C[C@H](NC(=O)Cc1cc(F)cc(F)c1)C(=O)N[C@H](C(=O)OC(C)(C)C)c1ccccc1 [DAPT, N—[N-(3,5-Difluorophenacetyl)-L-alanyl]-S-phenylglycine t-butyl ester]
expression of Hes1, Hes5, Hey1, Notch1, Psen1, Hif1α, nNOS, iNOS and eNOS [1]: altered
cilia number, cilia length, and/or cilia beat frequency of epithelial cells (airway epithelial cells; [4]): increased
symptoms of COPD (e.g., coughing) (airway epithelial cells; some subjects): ameliorated
cilia number, cilia length, and/or cilia beat frequency of ependymal cells (ependymal cells; [4]): increased
symptoms of hydrocephalus (e.g., headache) (ependymal cells; some subjects): ameliorated
cilia beat frequency [2, 5]: significantly increased
cilia length [2, 5]: significantly increased
increased ciliogenesis over baseline (percent ciliation) ([2]; 2 nM DAPT, 8 days suspension culture): ~3 fold
toxicity to cells (cell death, very few if any ciliated cells) ([2]; 2 μM DAPT or more, DMSO volume constant): toxic to cells
percentage reciliation (percent ciliation) ([3]; 12 paired samples from subjects with congenital heart defects): significantly greater; also recorded: significant increases
cilia beat frequency [3, 6]: significantly increased; also recorded: significant increases
cilia length [3, 6]: significantly increased; also recorded: significant increases
